The values that follow are results of earlier work, collected in patent publication US20020019373A1, “Combinations of bisphosphonates and estrogenic agents” (American Home Products Corporation, priority 2000, published 2002).

The data set has as its system Paget's disease of the bone. The settings on record: approved by the FDA for Paget's disease of the bone (30-mg tablets).

`O=P(O)(O)C(O)(Cc1cccnc1)P(=O)(O)O` [Risedronate]: the “effectiveness in clinical trials” value is recorded as “effective”.
